Data taken from patent publication US11117892B2, “Pyrrolo-pyridine derivative compound, method for preparing same, and pharmaceutical composition containing same as active ingredient for prevention or treatment of protein kinase-related diseases” (DAEGU-GYEONGBUK MEDICAL INNOVATION FOUNDATION, priority 2017, dated 2021).

Assays:
GSK3B = GSK3B (Homo sapiens (Human), UniProt P49841); assay: scanMAX Kinase assay panel; type: binding; settings: read-out: % control
Procedure, shortened: (§1)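 Panel: scanMAX. Metric: % control. The 100% anchor is DMSO and the 0% anchor is the positive control.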

DYRK1B = DYRK1B (Homo sapiens (Human), UniProt Q9Y463); assay: scanMAX Kinase assay panel; type: binding; settings: read-out: % control
Procedure, shortened: as §1

CDK5 = CDK5 (Homo sapiens (Human), UniProt Q00535); assay: scanMAX Kinase assay panel; type: binding; settings: read-out: % control
Procedure, shortened: as §1

CLK4 = CLK4 (Homo sapiens (Human), UniProt Q9HAZ1); assay: scanMAX Kinase assay panel; type: binding; settings: read-out: % control
Procedure, shortened: as §1

CLK1 = CLK1 (Homo sapiens (Human), UniProt P49759); assay: scanMAX Kinase assay panel; type: binding; settings: read-out: % control
Procedure, shortened: as §1

CSNK1E = CSNK1E (Homo sapiens (Human), UniProt P49674); assay: scanMAX Kinase assay panel; type: binding; settings: read-out: % control
Procedure, shortened: as §1

CLK3 = CLK3 (Homo sapiens (Human), UniProt P49761); assay: scanMAX Kinase assay panel; type: binding; settings: read-out: % control
Procedure, shortened: as §1

CLK2 = CLK2 (Homo sapiens (Human), UniProt P49760); assay: scanMAX Kinase assay panel; type: binding; settings: read-out: % control
Procedure, shortened: as §1

DYRK1A = DYRK1A (Homo sapiens (Human), UniProt Q13627); assay: scanMAX Kinase assay panel; type: binding; settings: read-out: % control
Procedure, shortened: as §1

DYRK2 = DYRK2 (Homo sapiens (Human), UniProt Q92630); assay: scanMAX Kinase assay panel; type: binding; settings: read-out: % control
Procedure, shortened: as §1

mouse pancreatic β-cell = mouse pancreatic β-cell proliferation (Ki-67/insulin staining); type: cell-based
Experimental: It is known that when human β-cells are treated with harmine that inhibits DYRK1A, the proliferation of β-cells is promoted by increasing the transcription factor activity by inhibiting the phosphorylation of NFAT known as a phosphorylation substrate of DYRK1A.
Particularly, pancreatic Langerhans islet tissues were extracted from the mouse at 8 weeks old, followed by culture in RPMI1640 medium supplemented with 10% FCS (fetal calves serum), 5.5 mM glucose and 1% penicillin-streptomycin for 24 hours.
Next, in order to separate β-cells as single cells from the Langerhans islet, cells were washed twice with PBS, followed by centrifugation. The collected cells were left in the medium supplemented with 1 mg/ml of trypsin for 10 minutes at 37° C. The cells were shaken using a pipette every 10 seconds for 5 minutes. Trypsin reaction was terminated by adding RPMI1640 containing 10% FCS (fetal calves serum), 5.5 mM glucose and 1% penicillin-streptomycin, followed by centrifugation to collect single cells.
Then, the single cells were loaded on the laminin-coated cover glass and stabilized for 24 hours. The cells were cultured in the medium containing the compound of the present invention for 72 hours. […] The cells double-stained with Ki-67/insulin were counted under Olympus F-1000 confocal fluorescence microscope to investigate cell proliferation.

5× FAD mice [1] = assay: novel object recognition test, long term cognitive function; type: in vivo; settings: 20 mg/kg i.p. every day for 2 weeks, vs non-treated group
Experimental: Novel object recognition test is an experiment to test the memory of perception of an object. Mice were let to see two identical objects. After a certain period of time had passed (several hours˜a week), the mice were let to see a novel object together with the object previously presented. Then, how much those mice were interested in the novel object and studied it was evaluated, leading to the evaluation of long term memory of the previous object.
Two objects which were the same in the shape and in the size (F, F) were placed in a specific corner of the open field box (42×42×42 cm) made that the outside is not invisible from the inside, and a test mouse was started from the center of the box. Then, the number and time of the test mouse touching those two objects were recorded for 5 minutes (Acquisition). 24 hours later, one of those two objects was replaced with a new one (F, N). The number and time of access to the original object (F) and the new object (N) were recorded and digitized (Discrimination). Preference for the object (p) was calculated by (time to approach to a certain object)/(total time to approach to two objects). FIG. 10(a) presents the schematic diagram of novel object recognition test, and FIG. 10(b) presents the calculation results.

5× FAD mice [2] = assay: Tau phosphorylation (AT180 immunohistochemistry) in Alzheimer's disease animal model; type: in vivo; settings: 20 mg/kg i.p. every day for 2 weeks, vs vehicle
Experimental: 2 weeks later, immunohistochemistry was performed using AT180, one of Tau phosphorylation antibodies, and as a result confocal microscope images were obtained. Quantitative analysis with the images was performed using image j software.

5× FAD mice [3] = assay: Y-maze behavioral test, short term cognitive function; type: in vivo; settings: 20 mg/kg i.p. every day for 2 weeks, vs non-treated group
Experimental: Then, the mice were placed in Y-maze composed of three arms abutting 120°, and each arm was lifted sequentially for five minutes to calculate the number of alternation triplets to see how well the mice remembered where they visited.
The equipment used for Y-maze test is composed of three arms. The length of each arm was 42 cm, the width thereof was 3 cm and the height was 12 cm. The angle of contact between the three arms is 120°. All experimental devices were made of black polyvinyl plastic. Each arm was assigned with A, B and C. A test mouse was carefully located in one arm and let move freely for 8 minutes. Then, the arm which the test mouse entered was recorded. At this time, the ‘enter’ means the case when the mouse tail was completely in. If the mouse entered an arm where it had already visited, the case was also recorded. If the mouse entered three different arms one by one (actual alternation), one point was given. Alternation behavior was defined by that the mouse entered three different arms stepwise, which was calculated by the following equation. […] [alternation behavior (%)=actual alternation/*maximum alternation×100]
*maximum alternation: total entries−2

DYRK1B, sequence (Q9Y463 whole entry): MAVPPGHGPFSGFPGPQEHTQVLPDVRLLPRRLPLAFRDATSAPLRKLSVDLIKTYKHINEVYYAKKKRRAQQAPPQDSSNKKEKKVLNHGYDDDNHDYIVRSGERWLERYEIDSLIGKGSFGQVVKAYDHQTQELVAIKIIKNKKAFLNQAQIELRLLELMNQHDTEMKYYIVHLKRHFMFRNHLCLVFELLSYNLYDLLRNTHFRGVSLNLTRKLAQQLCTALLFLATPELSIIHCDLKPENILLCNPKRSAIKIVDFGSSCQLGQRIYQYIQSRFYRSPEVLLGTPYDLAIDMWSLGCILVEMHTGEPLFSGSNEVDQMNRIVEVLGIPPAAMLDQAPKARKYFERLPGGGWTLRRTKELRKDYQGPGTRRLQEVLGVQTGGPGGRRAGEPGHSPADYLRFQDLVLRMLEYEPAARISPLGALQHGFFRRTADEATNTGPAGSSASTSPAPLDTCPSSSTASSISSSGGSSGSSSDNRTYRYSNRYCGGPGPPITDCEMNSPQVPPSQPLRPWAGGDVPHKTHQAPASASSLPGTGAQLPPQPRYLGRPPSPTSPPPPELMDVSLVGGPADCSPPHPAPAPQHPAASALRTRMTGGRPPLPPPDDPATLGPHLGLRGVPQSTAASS
CLK4, sequence (Q9HAZ1 whole entry): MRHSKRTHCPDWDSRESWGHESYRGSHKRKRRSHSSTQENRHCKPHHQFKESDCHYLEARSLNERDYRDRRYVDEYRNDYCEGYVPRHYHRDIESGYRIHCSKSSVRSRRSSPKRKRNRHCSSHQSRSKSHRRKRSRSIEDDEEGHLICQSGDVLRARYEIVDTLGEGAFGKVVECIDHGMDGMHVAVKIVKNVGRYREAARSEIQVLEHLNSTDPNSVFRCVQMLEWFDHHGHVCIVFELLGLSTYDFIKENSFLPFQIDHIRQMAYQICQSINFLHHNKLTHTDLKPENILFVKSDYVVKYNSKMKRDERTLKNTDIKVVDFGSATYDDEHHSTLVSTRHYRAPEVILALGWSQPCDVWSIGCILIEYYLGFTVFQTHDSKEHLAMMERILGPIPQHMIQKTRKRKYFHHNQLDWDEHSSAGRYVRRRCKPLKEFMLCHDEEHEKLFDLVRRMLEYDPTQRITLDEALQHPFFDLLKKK
DYRK2, sequence (Q92630 whole entry): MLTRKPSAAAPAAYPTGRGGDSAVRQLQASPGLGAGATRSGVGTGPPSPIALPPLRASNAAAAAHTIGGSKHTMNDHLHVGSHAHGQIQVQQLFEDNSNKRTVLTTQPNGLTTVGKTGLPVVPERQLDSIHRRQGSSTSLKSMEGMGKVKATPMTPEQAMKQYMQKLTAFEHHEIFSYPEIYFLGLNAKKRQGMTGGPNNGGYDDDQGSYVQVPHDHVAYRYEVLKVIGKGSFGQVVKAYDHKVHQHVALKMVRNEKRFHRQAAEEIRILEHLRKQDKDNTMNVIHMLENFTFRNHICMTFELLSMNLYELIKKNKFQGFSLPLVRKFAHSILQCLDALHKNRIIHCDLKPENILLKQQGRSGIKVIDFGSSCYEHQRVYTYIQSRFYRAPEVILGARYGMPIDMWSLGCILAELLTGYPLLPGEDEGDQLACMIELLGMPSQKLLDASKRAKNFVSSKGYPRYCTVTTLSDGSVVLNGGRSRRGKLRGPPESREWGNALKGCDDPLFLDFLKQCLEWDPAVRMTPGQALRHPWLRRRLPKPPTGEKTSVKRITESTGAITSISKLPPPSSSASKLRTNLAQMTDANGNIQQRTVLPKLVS
CDK5, sequence (Q00535 whole entry): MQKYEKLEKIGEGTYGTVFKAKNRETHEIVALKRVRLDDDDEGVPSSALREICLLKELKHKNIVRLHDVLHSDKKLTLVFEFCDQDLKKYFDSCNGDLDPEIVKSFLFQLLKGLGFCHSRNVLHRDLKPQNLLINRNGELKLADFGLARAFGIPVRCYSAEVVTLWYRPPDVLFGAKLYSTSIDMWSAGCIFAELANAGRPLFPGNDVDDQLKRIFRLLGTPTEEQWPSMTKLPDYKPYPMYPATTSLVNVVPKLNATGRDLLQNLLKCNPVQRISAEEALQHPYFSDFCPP
CSNK1E, sequence (P49674 whole entry): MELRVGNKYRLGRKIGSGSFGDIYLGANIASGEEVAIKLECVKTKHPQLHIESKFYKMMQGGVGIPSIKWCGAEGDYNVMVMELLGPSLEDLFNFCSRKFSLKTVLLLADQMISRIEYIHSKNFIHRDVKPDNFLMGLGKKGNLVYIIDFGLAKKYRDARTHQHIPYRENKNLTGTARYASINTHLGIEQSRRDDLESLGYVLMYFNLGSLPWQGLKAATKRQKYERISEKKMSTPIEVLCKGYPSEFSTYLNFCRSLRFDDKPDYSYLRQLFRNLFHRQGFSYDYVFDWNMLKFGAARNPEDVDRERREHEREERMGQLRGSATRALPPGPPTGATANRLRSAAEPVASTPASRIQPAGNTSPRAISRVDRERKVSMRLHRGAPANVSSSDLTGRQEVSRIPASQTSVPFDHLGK
CLK1, sequence (P49759 whole entry): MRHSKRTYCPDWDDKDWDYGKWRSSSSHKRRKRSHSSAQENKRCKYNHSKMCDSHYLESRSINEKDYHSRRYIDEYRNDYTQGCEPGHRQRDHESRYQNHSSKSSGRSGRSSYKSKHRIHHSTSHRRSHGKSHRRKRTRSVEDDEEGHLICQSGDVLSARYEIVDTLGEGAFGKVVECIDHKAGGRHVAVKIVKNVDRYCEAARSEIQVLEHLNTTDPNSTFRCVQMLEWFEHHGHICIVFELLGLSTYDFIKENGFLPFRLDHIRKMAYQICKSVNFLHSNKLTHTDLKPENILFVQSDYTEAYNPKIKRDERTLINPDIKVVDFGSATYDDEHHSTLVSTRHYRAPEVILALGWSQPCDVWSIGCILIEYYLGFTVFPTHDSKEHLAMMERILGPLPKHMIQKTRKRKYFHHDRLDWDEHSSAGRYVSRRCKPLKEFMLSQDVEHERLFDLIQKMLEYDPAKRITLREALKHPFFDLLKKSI
GSK3B, sequence (P49841 whole entry): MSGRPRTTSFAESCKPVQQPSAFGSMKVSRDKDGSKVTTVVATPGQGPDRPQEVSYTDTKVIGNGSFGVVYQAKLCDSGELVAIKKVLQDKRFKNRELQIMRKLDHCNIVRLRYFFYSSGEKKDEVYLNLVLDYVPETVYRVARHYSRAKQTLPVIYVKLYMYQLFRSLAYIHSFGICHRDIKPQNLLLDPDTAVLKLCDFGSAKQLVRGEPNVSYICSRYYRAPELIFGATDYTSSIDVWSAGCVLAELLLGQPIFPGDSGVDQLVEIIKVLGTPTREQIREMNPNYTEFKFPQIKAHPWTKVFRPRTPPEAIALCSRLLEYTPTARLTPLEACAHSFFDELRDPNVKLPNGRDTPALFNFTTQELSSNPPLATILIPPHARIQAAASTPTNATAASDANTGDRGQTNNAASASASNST
CLK2, sequence (P49760 whole entry): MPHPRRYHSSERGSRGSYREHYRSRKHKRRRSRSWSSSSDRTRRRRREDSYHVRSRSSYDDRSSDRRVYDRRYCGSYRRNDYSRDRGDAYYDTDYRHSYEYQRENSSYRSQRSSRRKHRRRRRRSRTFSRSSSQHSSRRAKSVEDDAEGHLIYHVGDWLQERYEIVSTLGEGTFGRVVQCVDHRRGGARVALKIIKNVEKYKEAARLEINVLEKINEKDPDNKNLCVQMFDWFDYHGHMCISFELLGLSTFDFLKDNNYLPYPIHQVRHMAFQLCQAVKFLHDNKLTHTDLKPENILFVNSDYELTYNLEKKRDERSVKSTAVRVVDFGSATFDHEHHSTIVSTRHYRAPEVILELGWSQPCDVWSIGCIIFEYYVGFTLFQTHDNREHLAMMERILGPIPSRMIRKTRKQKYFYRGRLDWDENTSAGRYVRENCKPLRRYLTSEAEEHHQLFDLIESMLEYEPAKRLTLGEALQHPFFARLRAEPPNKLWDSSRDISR
CLK3, sequence (P49761 whole entry): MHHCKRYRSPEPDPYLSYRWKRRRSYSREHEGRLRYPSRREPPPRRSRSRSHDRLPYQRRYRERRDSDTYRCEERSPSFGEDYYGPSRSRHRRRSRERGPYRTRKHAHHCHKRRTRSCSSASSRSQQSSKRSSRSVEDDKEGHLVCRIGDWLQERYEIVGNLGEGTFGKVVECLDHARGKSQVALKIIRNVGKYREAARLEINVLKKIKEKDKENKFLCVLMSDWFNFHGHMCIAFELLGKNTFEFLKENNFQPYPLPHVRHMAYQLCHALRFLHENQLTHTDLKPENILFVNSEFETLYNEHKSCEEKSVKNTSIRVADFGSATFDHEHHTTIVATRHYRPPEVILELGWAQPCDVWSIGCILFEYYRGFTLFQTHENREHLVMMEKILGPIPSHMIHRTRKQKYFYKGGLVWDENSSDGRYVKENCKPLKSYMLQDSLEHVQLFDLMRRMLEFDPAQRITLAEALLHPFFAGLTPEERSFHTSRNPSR

Compound | remaining binding at 1 µM (GSK3B) [%] | remaining binding at 1 µM (DYRK1B) [%] | remaining binding at 1 µM (CDK5) [%] | remaining binding at 1 µM (CLK4) [%] | remaining binding at 1 µM (CLK1) [%] | remaining binding at 1 µM (CSNK1E) [%] | remaining binding at 1 µM (CLK3) [%] | remaining binding at 1 µM (CLK2) [%] | remaining binding at 1 µM (DYRK1A) [%] | remaining binding at 1 µM (DYRK2) [%] | increase of the cell number (mouse pancreatic β-cell; Ki-67/insulin double-stained cells, 72 hours) [times] | cell proliferation (mouse pancreatic β-cell; mouse pancreatic β-cells cultured with compound for 72 hours) | long term memory (preference for the new object) (5× FAD mice [1]) | immunoreactivity of AT180 in the cerebral cortex region (5× FAD mice [2]) | immunoreactivity of AT180 in the hippocampus (5× FAD mice [2]) | short term memory (Y-maze alternation behavior) (5× FAD mice [3])
CCNc1cc(Nc2ccc(C(=O)N3CCC(N4CCOCC4)CC3)cc2OC)nc2[nH]cc(C#N)c12 [Example 18, 4-(ethylamino)-6-((2-methoxy-4-(4-morpholinopiperidine-1-carbonyl)phenyl)amino)-1H-pyrrolo[2,3-b]pyridine-3-carbonitrile] | 97 | 4 | 100 | 4 | 1.9 | 0.6 | 73 | 8.5 | 2 | 14 |  |  |  |  |  | 
CCNc1cc(Nc2ccc(C(=O)N3CCC(N4CCOCC4)CC3)cc2OC)nc2[nH]cc(C(F)(F)F)c12 [Example 57, (4-((4-(ethylamino)-3-(trifluoromethyl)-1H-pyrrolo[2,3-b]pyridin-6-yl)amino)-3-methoxyphenyl) (4-morpholinopiperidin-1-yl)methanone] |  |  |  |  |  |  |  |  |  |  | 5 | active | improved long term memory | no significant change | significantly reduced | improved short term memory
